# pIC50: −log10 of the molar value.
# Legend:
# [1] = biological target: pseudo-kinase domain (JH2) of human V617F mutant JAK2 (Homo sapiens (Human), UniProt O60674, F794H/V617F/W659A/W777A); assay: JAK2 LanthaScreen JH2-V617F Binding Assay; conditions: read-out: JH2 V617F Bind IC50
# Description: JAK2 JH2-V617F binding assay utilizes pseudo-kinase domain (JH2, amino-acids 536-812 with 3 surface mutations W659A, W777A, F794H) of human V617F mutant JAK2 expressed as C-terminal His-Avi-tagged, biotinylated protein in a baculovirus expression system (BPS Bioscience, Catalog #79498). The assay was conducted in black 384-well polystyrene plates in a final reaction volume of 20 μL. JAK2 JH2-V617F (0.26 nM) was incubated with compounds (100 nL serially diluted in DMSO) in the presence of 50 nM Fluorescent JAK2-JH2 Tracer (MedChem Express Catalog #HY-102055) and 0.25 nM Streptavidin-Tb cryptate (Cisbio Part #610SATLB) in assay buffer (50 mM Tris, pH=7.5, 10 mM MgCl2, 0.01% Brij-35, 0.1% BSA, 1 mM EGTA, 5% Glycerol and 5 mM DTT). Non-specific binding was accessed in the presence of 2 mM ATP. After incubation for 1 hour at 25° C., LanthaScreen signals were read on a PHERAstar FS plate reader (BMG LABTECH). Data was analyzed with IDBS XLfit and GraphPad Prism 5.0 software using a four parameter dose response curve to determine IC50 for each compound.
# [2] = biological target: FLT3 (Homo sapiens (Human), UniProt P36888); assay: FLT3 Enzymatic Assay; assay type: biochemical; conditions: 1 mM ATP
# FLT3 (Homo sapiens (Human), UniProt P36888), sequence (P36888 27-993, species assumed): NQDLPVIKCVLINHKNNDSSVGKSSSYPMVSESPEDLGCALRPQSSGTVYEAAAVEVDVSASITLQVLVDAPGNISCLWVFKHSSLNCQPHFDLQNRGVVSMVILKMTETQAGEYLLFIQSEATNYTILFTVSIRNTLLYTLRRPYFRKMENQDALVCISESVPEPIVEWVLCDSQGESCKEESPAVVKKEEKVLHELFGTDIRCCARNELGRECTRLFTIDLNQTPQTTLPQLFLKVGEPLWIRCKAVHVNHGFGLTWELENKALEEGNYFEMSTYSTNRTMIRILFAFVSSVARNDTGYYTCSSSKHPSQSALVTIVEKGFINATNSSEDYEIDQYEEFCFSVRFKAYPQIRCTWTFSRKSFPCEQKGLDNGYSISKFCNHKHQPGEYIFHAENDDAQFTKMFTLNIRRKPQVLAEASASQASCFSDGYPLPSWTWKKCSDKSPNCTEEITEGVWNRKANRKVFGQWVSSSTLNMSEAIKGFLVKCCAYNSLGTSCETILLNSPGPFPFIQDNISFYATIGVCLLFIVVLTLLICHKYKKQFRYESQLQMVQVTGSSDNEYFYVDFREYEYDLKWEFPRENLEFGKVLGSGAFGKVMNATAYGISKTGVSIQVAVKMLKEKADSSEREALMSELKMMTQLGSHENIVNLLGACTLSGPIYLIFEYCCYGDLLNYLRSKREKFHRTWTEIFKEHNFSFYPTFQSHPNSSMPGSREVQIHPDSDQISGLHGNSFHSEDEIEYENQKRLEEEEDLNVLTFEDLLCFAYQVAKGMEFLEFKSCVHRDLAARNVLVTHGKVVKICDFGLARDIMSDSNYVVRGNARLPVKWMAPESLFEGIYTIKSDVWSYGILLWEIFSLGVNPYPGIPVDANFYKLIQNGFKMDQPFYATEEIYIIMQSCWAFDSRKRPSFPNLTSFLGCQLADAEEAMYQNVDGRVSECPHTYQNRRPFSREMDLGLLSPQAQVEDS
# Description: (§1) The kinase assays were carried out at room temperature in assay buffer (HEPES 50 mM, pH 7.0, NaN3 0.02%, BSA 0.01%, Orthovanadate 0.1 mM, DTT 1 mM, MgCl2 10 mM) in a final volume of 10 μL. Testing compounds were prepared by serial dilution in DMSO and transferred to the plate wells by ECHO liquid handler (Labcyte) with 0.5% DMSO in the final assay. […]. Reactions were initiated by the addition of 5 μL ATP in assay buffer. The final 10 μL kinase reaction consists of 0.011 nM FLT3, 1 mM ATP, 500 nM TK Substrate-biotin and SEB reagent 62.5 nM in assay buffer. […] The plates were then sealed and centrifuged at 1800 rpm for 2 minutes. After 60 minutes incubation at room temperature, the product activity was determined by measuring the fluorescence at 620 nm and 665 nm on Pherastar microplate reader (BMG Labtech). A ratio is calculated (665/620 nm) for each well. Wells with DMSO only were served as the positive controls and wells containing no ATP were used as negative controls. IC50 determination was performed by fitting the curve of percent control activity versus the log of the compound concentration using the GraphPad Prism 7.0 software.
# [3] = test system: FLT3; assay: FLT3 Enzymatic Assay; assay type: biochemical
# Description: as §1
# [4] = biological target: TRKA (Homo sapiens (Human), UniProt P04629); assay: TRKA Enzymatic Assay; assay type: biochemical; conditions: 1 mM ATP
# TRKA (Homo sapiens (Human), UniProt P04629), sequence (P04629 33-796, species assumed): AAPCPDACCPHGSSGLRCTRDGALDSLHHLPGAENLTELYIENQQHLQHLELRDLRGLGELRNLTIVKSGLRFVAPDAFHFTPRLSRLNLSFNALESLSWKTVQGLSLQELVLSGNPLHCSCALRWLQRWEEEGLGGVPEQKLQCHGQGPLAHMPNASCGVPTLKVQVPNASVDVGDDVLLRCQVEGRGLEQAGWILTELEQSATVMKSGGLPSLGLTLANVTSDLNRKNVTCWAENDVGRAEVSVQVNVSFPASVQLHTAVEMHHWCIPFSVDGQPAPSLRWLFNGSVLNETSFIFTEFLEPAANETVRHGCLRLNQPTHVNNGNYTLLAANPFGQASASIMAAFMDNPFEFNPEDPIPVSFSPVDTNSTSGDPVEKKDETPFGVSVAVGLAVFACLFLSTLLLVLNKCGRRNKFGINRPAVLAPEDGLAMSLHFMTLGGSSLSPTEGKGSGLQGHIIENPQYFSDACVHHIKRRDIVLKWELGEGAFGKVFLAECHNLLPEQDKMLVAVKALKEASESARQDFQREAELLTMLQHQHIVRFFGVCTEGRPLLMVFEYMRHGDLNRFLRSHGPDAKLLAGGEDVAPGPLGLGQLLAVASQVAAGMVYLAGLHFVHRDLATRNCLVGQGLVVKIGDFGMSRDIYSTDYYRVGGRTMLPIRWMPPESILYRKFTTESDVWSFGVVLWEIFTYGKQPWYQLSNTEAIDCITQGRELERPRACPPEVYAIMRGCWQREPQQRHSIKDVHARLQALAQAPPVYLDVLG
# Description: (§2) The kinase assays were carried out at 24° C. temperature in assay buffer (HEPES 50 mM, pH 7.0, NaN3 0.02%, BSA 0.01%, Orthovanadate 0.1 mM, DTT 1 mM, MgCl2 10 mM) in a final volume of 10 μL. Testing compounds were prepared by serial dilution in DMSO and transferred to the plate wells by ECHO liquid handler (Labcyte) with 0.5% DMSO in the final assay. […]. Reactions were initiated by the addition of 5 μL ATP in assay buffer. The final 10 μL kinase reaction consisted of 0.58 nM TRKA, 1 mM ATP, 500 nM TK Substrate-biotin and SEB reagent 62.5 nM in assay buffer. […] After 60 minutes incubation at room temperature, the product activity was determined by measuring the fluorescence at 620 nm and 665 nm on Pherastar microplate reader (BMG Labtech). A ratio was calculated (665/620 nm) for each well. Wells with DMSO only served as the positive controls and wells containing no ATP were used as negative controls. IC50 determination was performed by fitting the curve of percent control activity versus the log of the compound concentration using the Gene data.
# [5] = test system: TRKA; assay: TRKA Enzymatic Assay; assay type: biochemical
# Description: as §2
# [6] = test system: STAT5 (Tyr694) phosphorylation in SET-2 cells; assay: STAT5 (Tyr694) Phosphorylation Cell Based Assay; conditions: Homo sapiens, 2 hours, read-out: SET2 IC50
# Description: SET-2 cells was purchased from DSMZ (Germany). RPMI1640 medium, Fetal Bovine Serum and 384-white sold flat-bottom small volume plate were purchased from Thermo Fisher Scientific (Waltham, MA). Phospho-STAT5 (Tyr694) HTRF kit was purchased from Perkin Elmer (Waltham, MA).
# SET-2 cells were cultured in RPMI media with 20% FBS at 37° C. in humidified incubator supplied with 5% CO2. On the day of assay, the cells were centrifuged to remove the culture media and resuspended with prewarmed RPMI with 10% FBS. Testing compounds were prepared by serial dilution in DMSO and 50 nL/well test compounds were transferred to the 384 white low volume cell culture plate (Greiner Bio-one) by ECHO liquid handler (Labcyte). The cells were then dispensed with Multidrop (Thermo Fisher, Waltham, MA) at 10 μL/well (7×10^6 cells/mL) with 0.5% DMSO in the final assay. After the treated cells were incubated for 2 hours at 37° C./5% CO2 incubator, 4 μL/well supplemented lysis buffer (100× blocking buffer diluted 25 fold in 4× lysis buffer, Perkin Elmer) were added and incubated at room temperature for 90 min on orbital shaker at 600 rpm. Phospho-STAT5 Cryptate antibody and Phospho-STAT5 d2 antibody (1:1 vol/vol) were premixed and diluted 20 fold with in the detection buffer (Perkin Elmer). 4 μL of the premixed antibody solution were added to each well followed with 24 hours incubation at room temperature on orbital shaker at 600 rpm. The product activity was determined by measuring the fluorescence at 620 nm and 665 nm on Pherastar microplate reader (BMG Labtech). A ratio is calculated (665/620) for each well. Wells with DMSO only served as the positive controls and wells containing high concentration of control compound were used as negative controls. IC50 determination was performed by fitting the curve of percent control activity versus the log of the compound concentration using the GraphPad Prism 7.0 software.
# [7] = biological target: catalytic domain (JH1) of human JAK2 (Homo sapiens (Human), UniProt O60674); assay: JAK2 LanthaScreen JH1 Binding Assay; conditions: read-out: JH1 Bind IC50
# catalytic domain (JH1) of human JAK2, sequence (O60674 826-1132): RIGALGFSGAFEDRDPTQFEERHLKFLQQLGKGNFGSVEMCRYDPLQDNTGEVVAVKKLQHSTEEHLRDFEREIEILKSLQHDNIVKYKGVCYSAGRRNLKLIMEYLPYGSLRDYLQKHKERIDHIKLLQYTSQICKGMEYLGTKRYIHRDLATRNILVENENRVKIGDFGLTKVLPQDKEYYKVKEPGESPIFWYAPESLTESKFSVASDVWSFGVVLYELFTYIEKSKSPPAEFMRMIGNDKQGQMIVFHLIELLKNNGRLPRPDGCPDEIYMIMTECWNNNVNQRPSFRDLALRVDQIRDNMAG
# Description: JAK2 JH1 binding assay utilizes catalytic domain (JH1, amino acids 826-1132) of human JAK2 expressed as N-terminal FLAG-tagged, biotinylated protein in a baculovirus expression system (Carna Biosciences, Product #08-445-20N). The assay was conducted in black 384-well polystyrene plates in a final reaction volume of 20 μL. JAK2 JH1 (1.5 nM) was incubated with compounds (100 nL serially diluted in DMSO) in the presence of 50 nM fluorescent JAK2-JH1 tracer and 0.5 nM Streptavidin-Tb cryptate (Cisbio Part #610SATLB) in assay buffer (50 mM Tris, pH=7.5, 10 mM MgCl2, 0.01% Brij-35, 0.1% BSA, 1 mM EGTA, 5% Glycerol and 5 mM DTT). Non-specific binding was accessed in the presence of 2 mM ATP. After incubation for 2 hours at 25° C., LanthaScreen signals were read on a PHERAstar FS plate reader (BMG LABTECH). Data was analyzed with IDBS XLfit and GraphPad Prism 5.0 software using a four parameter dose response curve to determine IC50 for each compound.
# pseudo-kinase domain (JH2) of human V617F mutant JAK2, sequence (O60674 536-812 V617F/W659A/W777A/F794H): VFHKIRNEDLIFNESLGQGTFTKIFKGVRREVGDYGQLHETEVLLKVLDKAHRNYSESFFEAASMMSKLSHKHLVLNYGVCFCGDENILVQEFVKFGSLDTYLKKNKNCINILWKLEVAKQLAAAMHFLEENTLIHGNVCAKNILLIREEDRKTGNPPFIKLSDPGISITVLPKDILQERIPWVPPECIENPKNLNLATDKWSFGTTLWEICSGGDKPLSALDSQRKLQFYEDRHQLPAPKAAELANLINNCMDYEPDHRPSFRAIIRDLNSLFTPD
structure (smiles),measurement,setting,value
"Cn1cc(-c2[nH]c3ncc4c(c3c2-c2ccc3c(cnn3C)c2)n([C@H]2CC[C@@H](CC#N)CC2)c(=O)n4C)cn1 [Comparative Example C, reference compound]",pIC50,[1],≥ 8.00
same,pIC50,[2],> 7.60
same,Selectivity FLT3/JH2 V617F,[3],* (selectivity of ≤500-fold)
same,pIC50,[4],> 7.60
same,Selectivity TRKA/JH2 V617F,[5],* (selectivity of ≤500-fold)
"CCn1c(=O)n(C2CCCC2)c2c3cc(-c4ccc(CN5CCC(S(C)(=O)=O)CC5)cc4)[nH]c3ncc21 [Comparative Example G, reference compound]",pIC50,[1],< 6.00
"Cn1c(=O)n(C2CCCC2)c2c3c(-c4ccccc4)c(-c4ccc(CN5CCC(S(C)(=O)=O)CC5)cc4)[nH]c3ncc21 [Comparative Example H, reference compound]",pIC50,[1],≥ 8.00
same,pIC50,[2],6.60 to 7.60
same,Selectivity FLT3/JH2 V617F,[3],* (selectivity of ≤500-fold)
same,pIC50,[4],6.60 to 7.60
same,Selectivity TRKA/JH2 V617F,[5],* (selectivity of ≤500-fold)
same,pIC50,[6],6.10 to 6.52
"Cn1ncc2cc(-c3c(-c4ccc(CN5CCC(S(C)(=O)=O)CC5)cc4)[nH]c4ncc5c(c34)n(C3CCCC3)c(=O)n5C)ccc21 [Comparative Example I, reference compound]",pIC50,[1],≥ 8.00
same,pIC50,[2],> 7.60
same,Selectivity FLT3/JH2 V617F,[3],* (selectivity of ≤500-fold)
same,pIC50,[4],> 7.60
same,Selectivity TRKA/JH2 V617F,[5],* (selectivity of ≤500-fold)
same,pIC50,[6],6.10 to 6.52
"CNC(=O)c1ccc(-c2[nH]c3ncc4c(c3c2-c2cccc(F)c2)n([C@@H]2CC[C@@H](NC(=O)OC)C2)c(=O)n4C)cc1F [Example 1, Methyl ((1R,3R)-3-(7-(3-fluoro-4-(methylcarbamoyl)phenyl)-8-(3-fluorophenyl)-3-methyl-2-oxo-3,6-dihydroimidazo[4,5-d]pyrrolo[2,3-b]pyridin-1(2H)-yl)cyclopentyl)carbamate]",pIC50,[1],≥ 8.00
same,pIC50,[7],< 6.00
same,pIC50,[6],< 6.10
"COC(=O)N[C@@H]1CC[C@@H](n2c(=O)n(C)c3cnc4[nH]c(-c5ccc(C(=O)NC(C)C)c(F)c5)c(-c5cccc(F)c5)c4c32)C1 [Example 2, Methyl ((1R,3R)-3-(7-(3-fluoro-4-(isopropylcarbamoyl)phenyl)-8-(3-fluorophenyl)-3-methyl-2-oxo-3,6-dihydroimidazo[4,5-d]pyrrolo[2,3-b]pyridin-1(2H)-yl)cyclopentyl)carbamate]",pIC50,[1],≥ 8.00
same,pIC50,[7],< 6.00
same,pIC50,[6],< 6.10
"CNC(=O)c1c(F)cc(-c2[nH]c3ncc4c(c3c2-c2cccc(F)c2)n([C@@H]2CC[C@@H](NC(=O)OC)C2)c(=O)n4C)cc1F [Example 3, Methyl ((1R,3R)-3-(7-(3,5-difluoro-4-(methylcarbamoyl)phenyl)-8-(3-fluorophenyl)-3-methyl-2-oxo-3,6-dihydroimidazo[4,5-d]pyrrolo[2,3-b]pyridin-1(2H)-yl)cyclopentyl)carbamate]",pIC50,[1],≥ 8.00
same,pIC50,[7],< 6.00
same,pIC50,[6],< 6.10
"COC(=O)N[C@@H]1CC[C@@H](n2c(=O)n(C)c3cnc4[nH]c(-c5cc(F)c(C(=O)NC6CC6)c(F)c5)c(-c5cccc(F)c5)c4c32)C1 [Example 4, Methyl ((1R,3R)-3-(7-(4-(cyclopropylcarbamoyl)-3,5-difluorophenyl)-8-(3-fluorophenyl)-3-methyl-2-oxo-3,6-dihydroimidazo[4,5-d]pyrrolo[2,3-b]pyridin-1(2H)-yl)cyclopentyl)carbamate]",pIC50,[1],≥ 8.00
same,pIC50,[7],< 6.00
same,pIC50,[6],< 6.10
"COC(=O)N[C@@H]1CC[C@@H](n2c(=O)n(C)c3cnc4[nH]c(-c5ccc(C(=O)N6C7CCC6COC7)c(OC)c5)c(-c5cccc(F)c5)c4c32)C1 [Example 5, Methyl ((1R,3R)-3-(7-(4-(3-oxa-8-azabicyclo[3.2.1]octane-8-carbonyl)-3-methoxyphenyl)-8-(3-fluorophenyl)-3-methyl-2-oxo-3,6-dihydroimidazo[4,5-d]pyrrolo[2,3-b]pyridin-1(2H)-yl)cyclopentyl)carbamate]",pIC50,[1],≥ 8.00
same,pIC50,[7],< 6.00
same,pIC50,[2],5.60 to 5.90
same,Selectivity FLT3/JH2 V617F,[3],***** (selectivity of >5000-fold to ≤12500-fold)
same,pIC50,[4],5.90 to 6.60
same,Selectivity TRKA/JH2 V617F,[5],** (selectivity of >500-fold to ≤1500-fold)
same,pIC50,[6],< 6.10
"COC(=O)N[C@@H]1CC[C@@H](n2c(=O)n(C)c3cnc4[nH]c(-c5ccc(C(=O)N6CC(OC)C6)c(F)c5)c(-c5ccc6c(cnn6C(C)C)c5)c4c32)C1 [Example 17, Methyl ((1R,3R)-3-(7-(3-fluoro-4-(3-methoxyazetidine-1-carbonyl)phenyl)-8-(1-isopropyl-1H-indazol-5-yl)-3-methyl-2-oxo-3,6-dihydroimidazo[4,5-d]pyrrolo[2,3-b]pyridin-1(2H)-yl)cyclopentyl)carbamate]",pIC50,[1],≥ 8.00
same,pIC50,[7],< 6.00
same,pIC50,[6],< 6.10
